Read-outs that look alike come from different tables or passages of the source.
Target: Der p 1 (Dermatophagoides pteronyssinus (European house dust mite), UniProt P08176)
Experiment: Der p 1 enzyme activity assay (FRET fluorogenic substrate)
Type: biochemical
Method: The fluorogenic substrate used for measuring Der p 1 proteolytic activity was 2-aminobenzoylvalylalanylnorleucylseryl-(3-nitro)tyrosinyl aspartamide.
Test compounds were dissolved in dry DMSO and maintained at 4° C. as stock solutions until being diluted for use in screening assays. Final concentration of DMSO in all enzymatic assays was 0.5% v/v.
Reaction mixtures were assembled in a 96-well plate format (Perkin Elmer Optiplate 96F, Perkin Elmer LAS, Seer Green, Buckinghamshire, UK) using a Perkin Elmer MultiPROBE II Plus HTS EX robot with Gripper attachment. […] Dithiothreitol (DTT, 10 μL/well, 1 mM final concentration) was then added together with 10 μL of Der p 1 dissolved at 2.5 μg/mL in reaction buffer supplemented with 1 mM DTT. […] The plate was immediately transferred to a fluorescence plate reader (Perkin Elmer Fusion Alpha-FP or Perkin Elmer Envision) equipped with a temperature-controlled carrier set at 30° C. and the reaction followed by excitation/emission at 330/420 nm.
Inhibitory activity was analysed from progress curves of reactions in the presence of a range of inhibitor concentrations.
Initial velocity in each well was converted to fractional activity by Equation 1: Fractional activity=(Initial rate at inhibitor concentration[X]/Initial rate at inhibitor concentration zero)*100 Equation 1:
Then, IC50 was determined by fitting the data of fractional activity and inhibitor concentration to a 4-parameter logistic curve, using Equation 2: V=Vmin+[Vmax−Vmin]/[1+(X/IC50)Hillslope] […] Biological Data—Der p 1 Enzyme Assay

[1] = threshold stated in text, read-out: Der p 1 IC50

Der p 1, sequence (P08176 99-320): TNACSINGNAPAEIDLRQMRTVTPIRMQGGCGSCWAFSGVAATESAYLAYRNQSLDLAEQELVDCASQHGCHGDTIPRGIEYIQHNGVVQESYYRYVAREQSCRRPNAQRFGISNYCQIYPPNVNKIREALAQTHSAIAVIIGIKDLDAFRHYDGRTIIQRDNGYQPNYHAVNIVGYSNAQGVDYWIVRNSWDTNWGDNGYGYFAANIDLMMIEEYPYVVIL

CC(=O)Nc1cc(C(=O)N[C@H](C(=O)N[C@@H](C)C(=O)N[C@H](C(=O)C(=O)NC2CCCCC2)C(C)C)C(C)(C)C)ccn1 [PVA-062]
IC50 [1]: < 200 nM

CC(=O)Nc1ccc(C(=O)N[C@H](C(=O)N[C@@H](C)C(=O)N[C@H](C(=O)C(=O)NCc2ccccc2)C(C)C)C(C)(C)C)cn1 [PVA-063]
IC50 [1]: < 200 nM

CC(=O)Nc1cc(C(=O)N[C@H](C(=O)N[C@@H](C)C(=O)N[C@H](C(=O)C(=O)NCc2ccccc2)C(C)C)C(C)(C)C)ccn1 [PVA-064]
IC50 [1]: < 200 nM

CC(C)[C@H](NC(=O)[C@H](C)NC(=O)[C@H](Cc1ccccc1)NC(=O)c1cccc(OCCN2CCCC2)c1)C(=O)C(=O)NC1CCCCC1 [PVA-065]
IC50 [1]: < 200 nM

CC(C)[C@H](NC(=O)[C@H](C)NC(=O)[C@@H](NC(=O)c1ccccc1)C12C[C@H]3C[C@@H](C1)C[C@@H](C2)C3)C(=O)C(=O)NCc1ccccc1 [PVA-066]
IC50 [1]: < 20 nM

CC(C)[C@H](NC(=O)[C@H](C)NC(=O)[C@H](Cc1ccccc1)NC(=O)c1ccccc1)C(=O)C(=O)NCC(=O)N1CCCCC1 [PVA-067]
IC50 (Der p 1 IC50): < 20 nM

CC(C)[C@H](NC(=O)[C@H](C)NC(=O)[C@H](Cc1ccccc1)NC(=O)c1ccccc1)C(=O)C(=O)NCC(=O)N1CCOCC1 [PVA-068]
IC50 (Der p 1 IC50): < 20 nM

CC(C)[C@H](NC(=O)[C@H](C)NC(=O)[C@H](Cc1ccccc1)NC(=O)c1ccnc(N2CCOCC2)c1)C(=O)C(=O)NC1CCCCC1 [PVA-069]
IC50 [1]: < 2000 nM

CC(C)[C@H](NC(=O)[C@H](C)NC(=O)[C@H](Cc1ccccc1)NC(=O)c1ccc(N2CCOCC2)nc1)C(=O)C(=O)NCc1ccccc1 [PVA-070]
IC50 [1]: < 2000 nM

CC(C)[C@H](NC(=O)[C@H](C)NC(=O)[C@@H](NC(=O)c1ccnc2ccccc12)C(C)(C)C)C(=O)C(=O)NC1CCCCC1 [PVA-071]
IC50 [1]: < 20 nM

CC(C)[C@H](NC(=O)[C@H](C)NC(=O)[C@@H](NC(=O)c1ccnc2ccccc12)C(C)(C)C)C(=O)C(=O)NCc1ccccc1 [PVA-072]
IC50 [1]: < 20 nM

CC(C)[C@H](NC(=O)[C@H](C)NC(=O)[C@@H](NC(=O)c1cncc2ccccc12)C(C)(C)C)C(=O)C(=O)NC1CCCCC1 [PVA-073]
IC50 [1]: < 20 nM

CC(C)[C@H](NC(=O)[C@H](C)NC(=O)[C@@H](NC(=O)c1cncc2ccccc12)C(C)(C)C)C(=O)C(=O)NCc1ccccc1 [PVA-074]
IC50 [1]: < 20 nM

CC(C)[C@H](NC(=O)[C@H](C)NC(=O)[C@@H](NC(=O)c1cccc(OCc2nccn2C)c1)C(C)(C)C)C(=O)C(=O)NC1CCCCC1 [PVA-075]
IC50 [1]: < 200 nM

CC(C)[C@H](NC(=O)[C@H](C)NC(=O)[C@@H](NC(=O)c1ccc(OCCN2CCCC2)cc1)C(C)(C)C)C(=O)C(=O)NC1CCCCC1 [PVA-076]
IC50 [1]: < 200 nM

CC(C)[C@H](NC(=O)[C@H](C)NC(=O)[C@@H](NC(=O)c1ccc(OCc2nccn2C)cc1)C(C)(C)C)C(=O)C(=O)NC1CCCCC1 [PVA-077]
IC50 [1]: < 200 nM

CC(C)[C@H](NC(=O)[C@H](C)NC(=O)[C@@H](NC(=O)c1ccccc1)C(C)(C)C)C(=O)C(=O)NCC(=O)N1CCCCC1 [PVA-078]
IC50 [1]: < 20 nM

CC(C)[C@H](NC(=O)[C@H](C)NC(=O)[C@@H](NC(=O)c1ccccc1)C(C)(C)C)C(=O)C(=O)NCC(=O)N1CCOCC1 [PVA-079]
IC50 [1]: < 20 nM

COC(=O)c1cccc(CNC(=O)C(=O)[C@@H](NC(=O)[C@H](C)NC(=O)[C@H](Cc2ccccc2)NC(=O)c2ccccc2)C(C)C)c1 [PVA-080]
IC50 [1]: < 20 nM

CC(C)[C@H](NC(=O)[C@H](C)NC(=O)[C@H](Cc1ccccc1)NC(=O)c1ccccc1)C(=O)C(=O)NCc1cccc(C(=O)O)c1 [PVA-081]
IC50 [1]: < 200 nM

CC(C)[C@H](NC(=O)[C@H](C)NC(=O)[C@@H](NC(=O)c1ccncn1)C(C)(C)C)C(=O)C(=O)NC1CCCCC1 [PVA-082]
IC50 [1]: < 200 nM

CC(C)[C@H](NC(=O)[C@H](C)NC(=O)[C@H](Cc1ccccc1)NC(=O)c1ccccc1)C(=O)C(=O)NC1CCN(C)CC1 [PVA-083]
IC50 [1]: < 200 nM

CC(C)[C@H](NC(=O)[C@H](C)NC(=O)[C@@H](NC(=O)c1ccc(=O)[nH]c1)C(C)(C)C)C(=O)C(=O)NC1CCCCC1 [PVA-084]
IC50 [1]: < 200 nM

CC(C)[C@@H](NC(=O)[C@H](C)NC(=O)[C@@H](NC(=O)c1ccccc1)C(C)(C)C)C(=O)C(=O)NC1CCCCC1 [PVA-085]
IC50 (Der p 1 IC50): < 200 nM

CC(C)[C@@H](NC(=O)[C@H](C)NC(=O)[C@@H](NC(=O)c1ccncc1)C(C)(C)C)C(=O)C(=O)NC1CCCCC1 [PVA-086]
IC50 (Der p 1 IC50): < 200 nM

CCC[C@H](NC(=O)[C@H](Cc1ccccc1)NC(=O)c1ccccc1)C(=O)N[C@H](C(=O)C(=O)NC1CCCCC1)C(C)C [PVA-088]
IC50 [1]: < 200 nM

CC(C)[C@H](NC(=O)[C@H](C)NC(=O)[C@@H](NC(=O)C1CCN(C)CC1)C(C)(C)C)C(=O)C(=O)NC1CCCCC1 [PVA-089]
IC50 [1]: < 200 nM

CC(C)[C@H](NC(=O)[C@H](C)NC(=O)C(C)(C)NC(=O)c1ccccc1)C(=O)C(=O)NC1CCCCC1 [PVA-090]
IC50 [1]: < 2000 nM

CC(C)[C@H](NC(=O)[C@H](C)NC(=O)C1(NC(=O)c2ccccc2)CCCCC1)C(=O)C(=O)NC1CCCCC1 [PVA-091]
IC50 [1]: < 200 nM

CC(C)[C@H](NC(=O)[C@H](C)NC(=O)[C@H](Cc1ccccc1)NC(=O)c1ccccc1)C(=O)C(=O)NCC(=O)N1CCN(C(C)C)CC1 [PVA-092]
IC50 (Der p 1 IC50): < 20 nM

CC(C)[C@H](NC(=O)[C@H](C)NC(=O)[C@H](Cc1ccccc1)NC(=O)c1ccccc1)C(=O)C(=O)NCC(=O)N1CCC(N(C)C)CC1 [PVA-093]
IC50 [1]: < 20 nM

CC(C)[C@H](NC(=O)[C@H](C)NC(=O)[C@H](Cc1ccccc1)NC(=O)c1ccccc1)C(=O)C(=O)N[C@@H](C)C(=O)N1CCN(C)CC1 [PVA-094]
IC50 (Der p 1 IC50): < 20 nM

CC(C)[C@H](NC(=O)[C@H](C)NC(=O)[C@H](Cc1ccccc1)NC(=O)c1cccc2ccccc12)C(=O)C(=O)NCC(=O)N1CCN(C)CC1 [PVA-095]
IC50 [1]: < 200 nM

CC(C)[C@H](NC(=O)[C@H](C)NC(=O)[C@H](Cc1ccccc1)NC(=O)c1ccccc1)C(=O)C(=O)NCCN1CCN(C)CC1 [PVA-098]
IC50 [1]: < 200 nM

CC(C)[C@H](NC(=O)[C@H](C)NC(=O)[C@H](Cc1ccccc1)NC(=O)c1ccncc1)C(=O)C(=O)NCc1ccccc1 [PVA-099]
IC50 [1]: < 20 nM

CC(C)[C@H](NC(=O)[C@H](C)NC(=O)[C@@H]1Cc2ccccc2CN1C(=O)c1ccccc1)C(=O)C(=O)NC1CCCCC1 [PVA-100]
IC50 [1]: < 200 nM

CC(C)[C@H](NC(=O)[C@H](C)NC(=O)C1CCCN1C(=O)c1ccccc1)C(=O)C(=O)NC1CCCCC1 (stereo partly shown) [PVA-101]
IC50 [1]: < 200 nM

C[C@H](NC(=O)[C@H](Cc1ccccc1)NC(=O)c1ccccc1)C(=O)NCC(=O)C(=O)NCc1ccccc1 [PVA-102]
IC50 [1]: < 200 nM

CC(C)[C@H](NC(=O)[C@H](C)NC(=O)[C@H](Cc1ccccc1)NC(=O)c1ccccc1)C(=O)C(=O)NC1Cc2ccccc2C1 [PVA-103]
IC50 [1]: < 200 nM

CC(C)[C@H](NC(=O)[C@H](C)NC(=O)[C@H](Cc1ccccc1)N1Cc2ccccc2C1=O)C(=O)C(=O)NC1CCCCC1 [PVA-104]
IC50 [1]: < 20 nM

CC(C)[C@H](NC(=O)[C@H](C)NC(=O)[C@@H](NC(=O)c1ccccc1)C(C)(C)C)C(=O)C(=O)NCC(=O)N1CCC(N(C)C)C1 (stereo partly shown) [PVA-105]
IC50 [1]: < 20 nM

CC(C)[C@H](NC(=O)[C@H](C)NC(=O)[C@@H](NC(=O)c1ccccc1Oc1ccccc1)C(C)(C)C)C(=O)C(=O)NCc1ccccc1 [PVA-106]
IC50 [1]: < 200 nM

Cc1cc(C(=O)N[C@H](C(=O)N[C@@H](C)C(=O)N[C@H](C(=O)C(=O)NCc2ccccc2)C(C)C)C(C)(C)C)[nH]n1 [PVA-107]
IC50 [1]: < 200 nM
